Data published in patent publication US9278982B2, “Targeting human thymidylate kinase induces DNA repair toxicity in malignant tumor cells” (NATIONAL YANG-MING UNIVERSITY, priority 2010, dated 2016).

How the values were obtained:
CL-1-0 = assay: Doxorubicin sensitization, MTS viability assay; assay type: cell-based, human; details: doxorubicin sensitivity, YMU1 vs vehicle
Method: (§1) FIG. 16. In vitro and in vivo effect of YMU1 on doxorubicin sensitization. (A) A panel of cell lines were pre-treated with vehicle, YMU1 (compound 21), D6 (ethyl 4-(2-chloroacetyl)piperazine-1-carboxylate) or D7 (compound 28) for 3 days and were exposed to different concentration of doxorubicin for 4 h. […] The enhancement (fold) of doxorubicin sensitivity in each cell line was calculated. Data represent mean±s.d., n=3; each experiment was quadruplex. Inset indicates the IC50 value of doxorubicin in various cell lines. […] Following overnight culture, cells were refreshed with growth medium. After 14 days of culture, colonies were fixed, stained by crystal violet and counted. (C) HCT-116 p53^−/− cells were subcutaneously implanted in the right flank of Balb/c nude mice (each experimental group n=8). Arrow indicated the time of stopping drug treatment. The tumor volume was estimated as described in Methods of the Invention section. (D) After 2 weeks recovered from treatment, mice were sacrificed for tumor weight measurement. Data represent mean±s.e.m; **, P<0.01 by a two-tailed Student's t-test. (E) Ki 67 proliferation marker staining of tumor shown in left panel. Scale bar, 50 μm. (F) Model of doxorubicin sensitization by YMU1 in malignant cancer cells. Both R2/R1 and TMPK are recruited to the site of doxorubicin-induced double-strand breaks, where dATP, dGTP, dCTP, dTTP and dUTP are site-specific synthesized. Inhibition of TMPK decreases dTTP formation at DNA damage sites, causing futile DNA repair due to dUTP incorporation.
(§2) Next, various human cancer cell lines were treated with YMU1, D6 or D7 for 72 h to test the potential of TMPK inhibitor in doxorubicin sensitization. After exposure to different concentration of doxorubicin for 4 h, cells were refreshed for viability analysis after 2 days and the IC50 value for doxorubicin in each of the cell lines was determined (FIG. 16A and Table 2).
(§3) Cells plated into a 96-well plate (10^3 cells/well) were treated and cell viability was measured by MTS assay (Promega) (Cory et al., 1991). An annexin V-fluorescein isothiocyanate (FITC) apoptosis kit (Calbiochem) was used to detect apoptosis. The cell cycle analysis was performed by staining cells with propidium iodide (PI) for fluorescence-activated cell sorter (FACS) analysis with CellQuest software.

Capan1 = assay: Doxorubicin sensitization, MTS viability assay; assay type: cell-based, human; details: doxorubicin sensitivity, YMU1 vs vehicle
Method: as §1, §2, §3

H1299 = assay: Doxorubicin sensitization, MTS viability assay; assay type: cell-based, human; details: doxorubicin sensitivity, YMU1 vs vehicle
Method: as §1, §2, §3

H184B5F5/M10 = assay: Doxorubicin sensitization, MTS viability assay; assay type: cell-based, human; details: doxorubicin sensitivity, YMU1 vs vehicle
Method: as §1, §2, §3

HCC1037 = assay: Doxorubicin sensitization, MTS viability assay; assay type: cell-based, human; details: doxorubicin sensitivity, YMU1 vs vehicle
Method: as §1, §2, §3

HCT-116p53+/+ = assay: Doxorubicin sensitization, MTS viability assay; assay type: cell-based, human; details: doxorubicin sensitivity, YMU1 vs vehicle
Method: as §1, §2, §3

HCT-116p53−/− = assay: Doxorubicin sensitization, MTS viability assay; assay type: cell-based, human; details: doxorubicin sensitivity, YMU1 vs vehicle
Method: as §1, §2, §3

HMEC = assay: Doxorubicin sensitization, MTS viability assay; assay type: cell-based, human; details: doxorubicin sensitivity, YMU1 vs vehicle
Method: as §1, §2, §3

HREC = assay: Doxorubicin sensitization, MTS viability assay; assay type: cell-based, human; details: doxorubicin sensitivity, YMU1 vs vehicle
Method: as §1, §2, §3

HT-29 = assay: Doxorubicin sensitization, MTS viability assay; assay type: cell-based, human; details: doxorubicin sensitivity, YMU1 vs vehicle
Method: as §1, §2, §3

IMR-90 = assay: Doxorubicin sensitization, MTS viability assay; assay type: cell-based, human; details: doxorubicin sensitivity, YMU1 vs vehicle
Method: as §1, §2, §3

MCF-10A = assay: Doxorubicin sensitization, MTS viability assay; assay type: cell-based, human; details: doxorubicin sensitivity, YMU1 vs vehicle
Method: as §1, §2, §3

MDA-MB231 = assay: Doxorubicin sensitization, MTS viability assay; assay type: cell-based, human
Method: as §1, §2, §3

MDA-MB468 = assay: Doxorubicin sensitization, MTS viability assay; assay type: cell-based, human; details: doxorubicin sensitivity, YMU1 vs vehicle
Method: as §1, §2, §3

SaoS2 = assay: Doxorubicin sensitization, MTS viability assay; assay type: cell-based, human; details: doxorubicin sensitivity, YMU1 vs vehicle
Method: as §1, §2, §3

U2OS = assay: Doxorubicin sensitization, MTS viability assay; assay type: cell-based, human; details: doxorubicin sensitivity, YMU1 vs vehicle
Method: as §1, §2, §3

[1] = system: various cancer cell lines; assay: Colony formation assay after YMU1 and doxorubicin; assay type: cell-based, human; details: YMU1 72 h, doxorubicin 0.1 μM 4 h, 14 days of culture
Method: as §1, with “Both R2/R1 and TMPK are recruited to the site of doxorubicin-induced double-strand breaks, where dATP, dGTP, dCTP, dTTP and dUTP are site-specific synthesized. Inhibition of TMPK decreases dTTP formation at DNA damage sites, causing futile DNA repair due to dUTP incorporation.” left out

In vivo toxicity of YMU1 = assay: In vivo toxicity of YMU1; set-up: species or system Balb/c mice

CCOC(=O)N1CCN(C(=O)Cn2sc3nc(C)cc(C)c3c2=O)CC1 [compound 21, Ethyl 4-(2-(4,6-dimethyl-3-oxoisothiazolo[5,4-b]pyridin-2(3H)-yl)acetyl) piperazine-1-carboxylate]
Enhancement fold (CL-1-0): 6.0 fold | Enhancement fold (Capan1): 1.0 fold | Enhancement fold (H1299): 12.2 fold | Enhancement fold (H184B5F5/M10): 1.7 fold | Enhancement fold (HCC1037): 0.8 fold | Enhancement fold (HCT-116p53+/+): 6.3 fold | Enhancement fold (HCT-116p53−/−): 6.8 fold | Enhancement fold (HMEC): 1.0 fold | Enhancement fold (HREC): 1.0 fold | Enhancement fold (HT-29): 3.4 fold | Enhancement fold (IMR-90): 1.0 fold | Enhancement fold (MCF-10A): 1.2 fold | Enhancement fold (MDA-MB231; MDA-MB231, doxorubicin sensitivity, YMU1 vs vehicle): 31.0 fold | enhancement on doxorubicin sensitization (MDA-MB231; MDA-MB231 cell treatment, compound at 2 μM): 30 fold | Enhancement fold (MDA-MB468): 27.8 fold | Enhancement fold (SaoS2): 35.1 fold | Enhancement fold (U2OS): 4.0 fold | lethal effects of doxorubicin (colony assay) [1]: markedly enhanced the lethal effects of doxorubicin | Body weight (In vivo toxicity of YMU1; Pre-treat, n = 4, Mean ± SEM): 19.93 ± 1.63 g | Clinical observations (In vivo toxicity of YMU1; Treatment group n = 4, YMU1 4 weeks): Nil | Body weight (In vivo toxicity of YMU1; Week -2, n = 4, Mean ± SEM): 20.88 ± 1.07 g | Body weight (In vivo toxicity of YMU1; Week-1, n = 4, Mean ± SEM): 20.48 ± 1.43 g | Body weight (In vivo toxicity of YMU1; Week-3, n = 4, Mean ± SEM): 21.25 ± 1.13 g | Body weight (In vivo toxicity of YMU1; Week-4, n = 4, Mean ± SEM): 21.30 ± 0.96 g | mouse body weight (In vivo toxicity of YMU1; YMU1 4 weeks, 2-fold higher dose regimen than in the tumor xenograft study): did not alter mouse body weight | toxic effect in normal mice (In vivo toxicity of YMU1; YMU1 on its own, 4 weeks): produces no toxic effect | Blood Chemistry, Alanine Aminotransferase (In vivo toxicity of YMU1; n = 4, Mean ± SEM): 32.00 ± 2.45 U/L | Blood Chemistry, Alkaline Phosphatase (In vivo toxicity of YMU1; n = 4, Mean ± SEM): 389.25 ± 20.79 U/L | Blood Chemistry, Aspartate Aminotransferase (In vivo toxicity of YMU1; n = 4, Mean ± SEM): 62.50 ± 5.26 U/L | Blood Chemistry, Blood Urea Nitrogen (In vivo toxicity of YMU1; n = 4, Mean ± SEM): 19.08 ± 3.25 mg/dL | Blood Chemistry, Creatinine (In vivo toxicity of YMU1; n = 4, Mean ± SEM): 0.10 ± 0.00 mg/dL | Blood Chemistry, Total protein (In vivo toxicity of YMU1; n = 4, Mean ± SEM): 5.48 ± 0.25 g/dL | Hematology, Hb (In vivo toxicity of YMU1; n = 4, Mean ± SEM): 16.25 ± 0.41 g/dl | Hematology, PCV (In vivo toxicity of YMU1; n = 4, Mean ± SEM): 53.48 ± 2.50% | Blood Chemistry, Glucose (In vivo toxicity of YMU1; n = 4, Mean ± SEM, *P < 0.05): 136.25 ± 14.31* mg/dl
